Experimental data as given in patent US20070224321A1, “Baked Goods Comprising High-Potency Sweetener” (THE COCA-COLA COMPANY, priority 2005, published 2007).

Assay type: physicochemical
Procedure: A solution of rebaudioside A (>97% pure by HPLC ) was prepared in double distilled water (12.5 gm in 50 mL, 25% concentration) by stirring the mixture at 40° C. for 5 minutes. An amorphous form of_rebaudioside A was formed by immediately using the clear solution for spray drying with the Lab-Plant spray drier SD-04 instrument (Lab-Plant Ltd., West Yorkshire, U.K.). The solution was fed through the feed pump into the nozzle atomizer which atomized it into a spray of droplets with the help of a constant flow of nitrogen/air. […] This dry powder (11-12 g, H2O 6.74%) was discharged continuously from the drying chamber and was collected in a bottle.

Substance: rebaudioside A [Form 4]
- solubility in water at room temperature: > 35.0%
